Source: patent US20130096123A1, “RADIATION SENSITISER COMPOSITIONS” (EUPHARMA PTY LTD, priority 2010, published 2013)
Values after ≈ are worked out from the molar mass of the structure shown.

Assays:
[1] = physchem; format: physicochemical
Experimental: A large number of these exist but in this formulation Hydroxypropyl beta Cyclodextrin (HPbCD) is used. HPbCD also assists masking the taste of the drug.
A solubility increase of above 10 fold is achieved and the room temperature solubility of nimorazole may be increased to the more dose convenient level of 100 mg/ml.
HPbCD complexes with nimorazole over a wide molar ratio, in this example the lower ratio of […] is used, therefore 226 g of nimorazole is used with 1400 g of HPbCD.

[2] = cited from earlier work

- solubility increase [1]: above 10 fold
- solubility ([1]; aqueous with cosolvent or surfactant or cyclodextrin): 100 mg/mL (≈ 442 mM)
Structure (SMILES): O=[N+]([O-])c1cncn1CCN1CCOCC1 [Nimorazole, nimorazole]
- pKa [2]: 5.2
